Laboratory results as given in US10131652B2, “Pyrimidinyloxy benzene derivatives as herbicides” (E. I. DU PONT DE NEMOURS AND COMPANY, priority 2014, dated 2018).

What was measured:
Assay in all cases: Test D pre-/postemergence plant response
Type in all cases: in vivo
[1] = system: large (Lg) crabgrass (Digitaria sanguinalis)
Method in brief: (§1)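 Two application timings were run together: preemergence onto seeded loam–sand pots, and postemergence onto 1- to 4-leaf plants (2 to 18 cm) in peat/vermiculite medium with starter nutrients. Formulation was a non-phytotoxic solvent with surfactant. Ratings, 0 to 100, were made visually versus controls after 13 to 15 greenhouse days.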

[2] = system: velvetleaf (Abutilon theophrasti)
Method in brief: as §1

[3] = system: galium (catchweed bedstraw, Galium aparine)
Method in brief: as §1

[4] = system: blackgrass (Alopecurus myosuroides)
Method in brief: as §1

[5] = system: corn (Zea mays)
Method in brief: as §1

[6] = system: ragweed (common ragweed, Ambrosia elatior)
Method in brief: as §1

[7] = system: lambsquarters (Chenopodium album)
Method in brief: as §1

[8] = system: morningglory (Ipomoea coccinea)
Method in brief: as §1

[9] = system: giant foxtail (Setaria faberii)
Method in brief: as §1

[10] = Postemergence, 16 g ai/ha, scale 0 to 100 (0 no effect, 100 complete control)
[11] = Postemergence, 31 g ai/ha, scale 0 to 100 (0 no effect, 100 complete control)
[12] = Postemergence, 62 g ai/ha, scale 0 to 100, 0 no effect, 100 complete control
[13] = Postemergence, 125 g ai/ha, scale 0 to 100, 0 no effect, 100 complete control
[14] = Preemergence, 16 g ai/ha, scale 0 to 100 (0 no effect, 100 complete control)
[15] = Preemergence, 31 g ai/ha, scale 0 to 100 (0 no effect, 100 complete control)
[16] = Preemergence, 62 g ai/ha, scale 0 to 100 (0 no effect, 100 complete control)

Fc1cccc(Oc2ncc(Br)cn2)c1-c1cc(C(F)F)on1 [Compound 118] was tested. Which “Crabgrass, Large plant response rating” value [1, 10] did it give?
The value was 10.

And the “Crabgrass, Large plant response rating” value [1, 11]?
Its value is 10.

What about the “Plant response rating, Crabgrass, Large” value [1, 12] of the same compound?
The value was 15.

And the “Plant response rating, Crabgrass, Large” value [1, 13]?
Its value is 20.

What about the “Plant response rating (scale 0 to 100), Crabgrass, Large” value ([1]; Preemergence, 125 g ai/ha) of the same compound?
The value was 100.

And the “Plant response rating, Crabgrass, Large” value [1, 14]?
Its value is 100.

What about the “Plant response rating, Crabgrass, Large” value [1, 15] of the same compound?
The value was 100.

And the “Plant response rating, Crabgrass, Large” value [1, 16]?
Its value is 100.

And the “Velvetleaf plant response rating” value [2, 10]?
Its value is 65.

And the “Velvetleaf plant response rating” value [2, 11]?
Its value is 75.

What about the “Plant response rating, Velvetleaf” value [2, 12] of the same compound?
The value was 70.

What about the “Plant response rating, Velvetleaf” value [2, 13] of the same compound?
Its value is 85.

What about the “Plant response rating (scale 0 to 100), Velvetleaf” value ([2]; Preemergence, 125 g ai/ha) of the same compound?
Its value is 100.

What about the “Plant response rating, Velvetleaf” value [2, 14] of the same compound?
The value was 80.

What about the “Plant response rating, Velvetleaf” value [2, 15] of the same compound?
The value was 70.

What about the “Plant response rating, Velvetleaf” value [2, 16] of the same compound?
Its value is 100.

What about the “Galium plant response rating” value [3, 10] of the same compound?
Its value is 85.

And the “Galium plant response rating” value [3, 11]?
Its value is 90.

What about the “Plant response rating, Galium” value [3, 12] of the same compound?
The value was 90.

And the “Plant response rating, Galium” value [3, 13]?
Its value is 98.

What about the “Plant response rating (scale 0 to 100), Galium” value ([3]; Preemergence, 125 g ai/ha) of the same compound?
The value was 95.

And the “Plant response rating, Galium” value [3, 14]?
The value was 60.

And the “Plant response rating, Galium” value [3, 15]?
Its value is 98.

And the “Plant response rating, Galium” value [3, 16]?
Its value is 95.

What about the “Blackgrass plant response rating” value [4, 10] of the same compound?
The value was 5.

What about the “Blackgrass plant response rating” value [4, 11] of the same compound?
The value was 10.

What about the “Plant response rating, Blackgrass” value [4, 12] of the same compound?
Its value is 15.

What about the “Plant response rating, Blackgrass” value [4, 13] of the same compound?
The value was 35.

And the “Plant response rating (scale 0 to 100), Blackgrass” value ([4]; Preemergence, 125 g ai/ha)?
Its value is 90.

And the “Plant response rating, Blackgrass” value [4, 14]?
Its value is 0.

What about the “Plant response rating, Blackgrass” value [4, 15] of the same compound?
The value was 10.

What about the “Plant response rating, Blackgrass” value [4, 16] of the same compound?
The value was 60.

And the “Corn plant response rating” value [5, 10]?
Its value is 5.

What about the “Corn plant response rating” value [5, 11] of the same compound?
The value was 10.

What about the “Plant response rating, Corn” value [5, 12] of the same compound?
The value was 15.

What about the “Plant response rating, Corn” value [5, 13] of the same compound?
The value was 15.

What about the “Plant response rating (scale 0 to 100), Corn” value ([5]; Preemergence, 125 g ai/ha) of the same compound?
The value was 30.

And the “Plant response rating, Corn” value [5, 14]?
The value was 0.

And the “Plant response rating, Corn” value [5, 15]?
Its value is 5.

And the “Plant response rating, Corn” value [5, 16]?
The value was 30.

And the “Ragweed plant response rating” value [6, 10]?
Its value is 80.

What about the “Ragweed plant response rating” value [6, 11] of the same compound?
Its value is 45.

And the “Plant response rating, Ragweed” value [6, 12]?
The value was 55.

And the “Plant response rating, Ragweed” value [6, 13]?
The value was 85.

And the “Plant response rating (scale 0 to 100), Ragweed” value ([6]; Preemergence, 125 g ai/ha)?
Its value is 85.

What about the “Plant response rating, Ragweed” value [6, 14] of the same compound?
The value was 85.

And the “Plant response rating, Ragweed” value [6, 15]?
Its value is 20.

What about the “Plant response rating, Ragweed” value [6, 16] of the same compound?
The value was 70.

What about the “Lambsquarters plant response rating” value [7, 10] of the same compound?
The value was 75.

And the “Lambsquarters plant response rating” value [7, 11]?
Its value is 85.

And the “Plant response rating, Lambsquarters” value [7, 12]?
Its value is 90.

And the “Plant response rating, Lambsquarters” value [7, 13]?
Its value is 95.

And the “Plant response rating (scale 0 to 100), Lambsquarters” value ([7]; Preemergence, 125 g ai/ha)?
Its value is 98.

What about the “Plant response rating, Lambsquarters” value [7, 14] of the same compound?
The value was 90.

What about the “Plant response rating, Lambsquarters” value [7, 15] of the same compound?
The value was 90.

What about the “Plant response rating, Lambsquarters” value [7, 16] of the same compound?
The value was 95.

And the “Morningglory plant response rating” value [8, 10]?
The value was 85.

And the “Morningglory plant response rating” value [8, 11]?
The value was 85.

And the “Plant response rating, Morningglory” value [8, 12]?
The value was 85.

What about the “Plant response rating, Morningglory” value [8, 13] of the same compound?
The value was 80.

And the “Plant response rating (scale 0 to 100), Morningglory” value ([8]; Preemergence, 125 g ai/ha)?
Its value is 90.

What about the “Plant response rating, Morningglory” value [8, 14] of the same compound?
The value was 30.

What about the “Plant response rating, Morningglory” value [8, 15] of the same compound?
Its value is 5.

And the “Plant response rating, Morningglory” value [8, 16]?
Its value is 85.

And the “Foxtail, Giant plant response rating” value [9, 10]?
Its value is 5.

And the “Foxtail, Giant plant response rating” value [9, 11]?
Its value is 15.

And the “Plant response rating, Foxtail, Giant” value [9, 12]?
The value was 10.

What about the “Plant response rating, Foxtail, Giant” value [9, 13] of the same compound?
Its value is 20.

And the “Plant response rating (scale 0 to 100), Foxtail, Giant” value ([9]; Preemergence, 125 g ai/ha)?
The value was 100.

What about the “Plant response rating, Foxtail, Giant” value [9, 14] of the same compound?
The value was 98.

And the “Plant response rating, Foxtail, Giant” value [9, 15]?
The value was 100.

And the “Plant response rating, Foxtail, Giant” value [9, 16]?
Its value is 100.
